According to publication PMC12469269, “Investigating SMR Peptide Interactions with Breast Cancer-Associated Proteins” (International Journal of Molecular Sciences, 2025):
“Also recorded” adds a separate entry of the source.

Key:
[1] = test system: exNef-GFP secretion in MDA-MB-231, MCF-7, BT474 BC cells and Jurkat T cells; experiment: Nef-driven exNef-GFP secretion (Figure 3), three BC cell lines and Jurkat T cells; assay type: cell-based, human
Procedure: Figure 3 Effects of Mortalin-derived peptides on viral Nef-driven exNef secretion. (A) MDA-MB-231, (B) MCF-7, (C) BT474 BC cells, and (D) Jurkat T cells were co-transfected with 1 µg of wild-type Nef-GFP clone and 200 ng of various Mortalin-scanning peptides. The cells were then placed in a 24-well plate and incubated at 37 °C for 24 h before being assayed for extracellular vesicle secretion. Cells were also co-transfected with SMRwt or SMRmut peptides as positive and negative controls, respectively. The amount of GFP fluorescence measured was equivalent to the amount of exNef-GFP in the extracellular media. […] The bar graphs display relative levels of exosome release. In here, asterisks (* p < 0.05, ** p < 0.005, *** p < 0.0005, and **** p < 0.00005) are used to indicate levels of statistical significance. The more asterisks, the stronger the statistical significance. Data represents the mean ± SD from three independent experiments.
Co-transfections of cells with peptides were carried out using Lipofectamine Reagent (Fisher Scientific), following the manufacturer’s protocol. One day prior to transfection, cells were trypsinized and plated at a density of 6.25 × 10^5 cells per well in 2 mL of complete growth medium. […] The cell transfection efficiency was calculated by counting the green, fluorescent cells using a fluorescence microscope.

[2] = test system: Vimentin; experiment: SPR competition: SMRwt binding to immobilized Vimentin with Mortalin peptides; set-up: species or system Human; details: 20 µM SMRwt + 20 µM Mortalin peptide, 25 °C, HBS-P pH 7.4
Procedure: Both Vimentin and Mortalin were immobilized as ligands. We used 20 µM of SMRwt alone and 20 µM of Mortalin peptides alone, and their mixtures were used as analytes.
Figure 9 Competitive binding of SMR and Mortalin peptides to Vimentin and Mortalin proteins. Binding of SMRwt to immobilized Vimentin in the presence and absence of (A) Mortalin peptide #56, (B) Mortalin peptide #61, and (C) Mortalin peptide #62. Binding of SMRwt to immobilized Mortalin in the presence and absence of (D) Mortalin peptide #56, (E) Mortalin peptide #61, and (F) Mortalin peptide #62. SMRwt alone, as well as a mixture of His-tagged Mortalin peptides #56, #61, and #62 were injected as analytes to flow over the immobilized ligand surfaces. […] Vimentin and Mortalin proteins were immobilized as ligands on a CM5 sensor chip using standard amine coupling chemistry.
SPR experiments were conducted using a Biacore T200 instrument (Cytiva, Marlborough, MA, USA). CM5 sensor chips (Cytiva) were used to immobilize proteins and run subsequent binding assays at 25 °C. To investigate the direct binding of Nef and SMR peptides to Vimentin and Mortalin and SMR competition studies, both proteins were immobilized as ligands on the active flow cells (FCs) using standard amine coupling chemistry. […] Sensorgrams recorded for kinetics analyses were fitted to a 1:1 binding model using the Biacore T200 evaluation software version 3.2.1. […]

[3] = target: T1, Recombinant Human GRP75/HSPA9B/Mortalin His Protein (Homo sapiens, UniProt P38646); experiment: biochemical; assay type: binding; details: SPR, 25 °C, HBS-P pH 7.4
T1 construct: His; purchased Novus Biologicals, LLC/R&D Systems NBC1-18380
Text: (§1) We conducted SPR experiments to characterize and quantify the direct binding interactions between Nef and SMR peptides (the analytes) and the target proteins, Vimentin and Mortalin (the immobilized ligands). We did so by injecting the analytes at various concentrations over the chip surface with the immobilized ligands.
(§2) Recombinant Human Vimentin Protein, CF (catalog # 2105-VI-100), Recombinant Human GRP75/HSPA9B/Mortalin His Protein (catalog # NBC1-18380), and Recombinant Human HSPA8/HSC71/Hsc70 His Protein (Catalog # NBPI-30278) were purchased from Novus Biologicals, LLC/R&D Systems, Centennial, CO, USA. These proteins were used for SPR.
(§3) SPR experiments were conducted using a Biacore T200 instrument (Cytiva, Marlborough, MA, USA). CM5 sensor chips (Cytiva) were used to immobilize proteins and run subsequent binding assays at 25 °C. To investigate the direct binding of Nef and SMR peptides to Vimentin and Mortalin and SMR competition studies, both proteins were immobilized as ligands on the active flow cells (FCs) using standard amine coupling chemistry. One reference FC was prepared using the same surface chemistry, and no proteins were immobilized onto this reference FC. Vimentin was immobilized to a level of ~2500 RU to 7200 RU in the presence of 4 mM of HCl and Mortalin to a level of ~11,900 RU to 13,200 RU in the presence of 10 mM of sodium acetate buffer at pH 4.5. Analytes were then injected (Nef, SMR peptides, Mortalin peptides, and mixtures of […]). One 20 s pulse of 1:500 H3PO4 (H3PO4:ddH2O) was injected for surface regeneration. To investigate the direct binding of Mortalin peptides to Nef, Nef was immobilized as a ligand to ~450 RU using thiol coupling chemistry. A reference FC was created using a method similar to the one above. Mortalin peptides were then injected as analytes. One 20 s pulse of 1 M NaCl was injected for surface regeneration. HBS-P (10 mM Hepes, pH 7.4; 150 mM NaCl; 0.05% surfactant P20) was used as the immobilization running buffer during the immobilization of all ligands. HBS-P was also used to dilute analytes and as a running buffer during all analyte–ligand binding assays. SPR data used for analysis was both blank (signals due to HBS-P only) and reference-subtracted (signals corresponding to reference FCs). Sensorgrams recorded for kinetics analyses were fitted to a 1:1 binding model using the Biacore T200 evaluation software version 3.2.1. GraphPad Prism version 10.4.0 was used to plot all graphs.

[4] = target: T2, Recombinant Human Vimentin Protein (Homo sapiens, UniProt P08670); experiment: biochemical; assay type: binding; details: SPR, 25 °C, HBS-P pH 7.4
T2 construct: purchased Novus Biologicals, LLC/R&D Systems 2105-VI-100
Text: as §1, §2, §3

T1 sequence (P38646 47-679): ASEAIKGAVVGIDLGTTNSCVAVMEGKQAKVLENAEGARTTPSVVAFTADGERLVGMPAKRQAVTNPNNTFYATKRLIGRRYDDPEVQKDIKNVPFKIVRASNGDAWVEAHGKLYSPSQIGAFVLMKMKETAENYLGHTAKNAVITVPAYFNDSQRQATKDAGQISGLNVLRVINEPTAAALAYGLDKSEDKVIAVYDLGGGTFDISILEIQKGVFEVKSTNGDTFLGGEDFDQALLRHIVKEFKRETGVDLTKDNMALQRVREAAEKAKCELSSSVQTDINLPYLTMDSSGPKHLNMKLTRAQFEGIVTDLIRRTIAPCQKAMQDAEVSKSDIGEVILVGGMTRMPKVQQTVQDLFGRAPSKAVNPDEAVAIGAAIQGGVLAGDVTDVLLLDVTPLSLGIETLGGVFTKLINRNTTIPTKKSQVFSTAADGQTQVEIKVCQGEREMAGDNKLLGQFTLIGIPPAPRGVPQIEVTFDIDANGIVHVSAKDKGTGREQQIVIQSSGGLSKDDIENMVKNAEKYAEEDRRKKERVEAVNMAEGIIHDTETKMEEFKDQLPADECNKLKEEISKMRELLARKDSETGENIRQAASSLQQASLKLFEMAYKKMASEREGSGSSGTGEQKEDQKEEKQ
T2 sequence (P08670 whole entry): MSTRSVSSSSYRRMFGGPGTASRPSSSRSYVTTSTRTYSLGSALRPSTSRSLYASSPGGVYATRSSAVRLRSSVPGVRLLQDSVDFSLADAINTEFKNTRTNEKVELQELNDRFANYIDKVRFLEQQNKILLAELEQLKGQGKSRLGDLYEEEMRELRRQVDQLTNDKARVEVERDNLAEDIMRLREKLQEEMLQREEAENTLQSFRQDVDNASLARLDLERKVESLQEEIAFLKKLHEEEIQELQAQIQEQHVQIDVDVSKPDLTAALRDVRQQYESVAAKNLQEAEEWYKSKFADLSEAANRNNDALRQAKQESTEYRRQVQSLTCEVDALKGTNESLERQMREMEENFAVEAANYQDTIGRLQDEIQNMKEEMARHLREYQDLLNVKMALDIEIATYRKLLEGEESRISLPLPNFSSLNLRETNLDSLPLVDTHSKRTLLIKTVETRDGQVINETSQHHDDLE

Substance	effect on Nef function (exNef-GFP secretion), in words ([1]; 1 µg Nef-GFP + 200 ng peptide, co-transfected, 37 °C, 24 h, GFP fluorescence, three independent experiments)	interaction with NefSMR domain / Nef / SMRwt peptide, in words ([1]; inferred from exNef secretion (Figures 2 and 3))	inhibition of SMRwt–Vimentin binding, in words ([2]; listed as Mortalin #61)	inhibition of SMRwt–Vimentin binding, in words ([2]; listed as Mortalin peptide #61)	binding to Mortalin, in words [3]	binding response to Vimentin, in words [4]
DQLPADECNKLKEEISKMRE [#61, Mortalin scanning peptide 61]	significant reduction in exNef-GFP secretion; also recorded: inhibit Nef function	bind HIV-1 Nef and the SMRwt peptide; also recorded: can interact with the NefSMR domain; also recorded: bound the SMR domain and effectively inhibited Nef activity	effectively compete with SMRwt to block its interaction with the Mortalin or Vimentin protein	inhibited SMRwt binding to both Mortalin and Vimentin; also recorded: completely blocks the 20 µM SMRwt from binding to both Vimentin and Mortalin; also recorded: completely inhibited complex formation between SMRwt and Vimentin	–	–
^66Ala-Gly-Phe-Pro-Val^70 [SMRmut, 5-mer negative control, Val66 changed to Ala]	–	–	–	–	did not produce a meaningful positive binding response to Vimentin and Mortalin; also recorded: does not bind to the Mortalin protein	did not produce a meaningful positive binding response to Vimentin and Mortalin
